Assay results from PMC7921093, “Human METTL7B is an alkyl thiol methyltransferase that metabolizes hydrogen sulfide and captopril” (Scientific Reports, 2021).
Values belong to the compound of their own block, whether it stands above or below them.

Tests used:
Type in all cases: biochemical
[1] = molecular target: T1, METTL7B (methyltransferase-like protein 7B) (Homo sapiens, UniProt Q6UX53); assay: S-methyl captopril formation by purified enzyme, LC-MS/MS; D98A inactive
T1 construct: gene TMT1B; His-GST-METTL7B, N-terminal His-GST tag with (AP)5 linker
T1 sequence (Q6UX53 1-244): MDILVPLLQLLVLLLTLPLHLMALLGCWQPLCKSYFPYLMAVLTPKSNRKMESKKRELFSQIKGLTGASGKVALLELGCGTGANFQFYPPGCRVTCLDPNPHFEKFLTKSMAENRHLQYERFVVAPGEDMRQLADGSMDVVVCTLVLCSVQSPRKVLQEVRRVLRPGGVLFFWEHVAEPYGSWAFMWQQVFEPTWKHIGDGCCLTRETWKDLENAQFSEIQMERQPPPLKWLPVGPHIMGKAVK

[2] = molecular target: T1, METTL7B (methyltransferase-like protein 7B); assay: methylsulfide formation, LC-MS/MS after monobromobimane derivatization, saturable kinetics
[3] = molecular target: T1, METTL7B (methyltransferase-like protein 7B); assay: Michaelis-Menten kinetics of S-methyl captopril formation, LC-MS/MS
[4] = molecular target: T1, METTL7B (methyltransferase-like protein 7B); assay: MTaseGlo substrate screen (AdoHcy formation) with purified enzyme
From the text: MTaseGlo substrate screen (AdoHcy formation) with purified enzyme on METTL7B (methyltransferase-like protein 7B) | D-Penicillamine|++

Structure (SMILES): C[C@H](CS)C(=O)N1CCC[C@H]1C(=O)O [captopril]
S-methyl captopril formation by purified enzyme, LC-MS/MS; D98A inactive [1]: concentration-dependent formation of S-methyl captopril was observed upon incubation with purified wild-type His-GST-METTL7B

Structure (SMILES): S [hydrogen sulfide]
methylsulfide formation, LC-MS/MS after monobromobimane derivatization, saturabl [2]: Peak area ratio (PAR) versus concentration curve for hydrogen sulfide methylation as measured by formation of methylsulfide

Structure (SMILES): C[S+](CC[C@H](N)C(=O)[O-])C[C@H]1O[C@@H](n2cnc3c(N)ncnc32)[C@H](O)[C@@H]1O (stereo partly drawn) [S-adenosyl-L-methionine]
Michaelis-Menten kinetics of S-methyl captopril formation, LC-MS/MS [3]: the AdoMet activity curve was saturable and exhibited classic Michaelis–Menten kinetics

MTaseGlo substrate screen (AdoHcy formation) with purified enzyme [4]: D-Penicillamine|++
Structure (SMILES): CC(C)(S)[C@@H](N)C(=O)O [D-penicillamine]
